Results on 1 molecule are retold here after ChEMBL document CHEMBL2046422, “Structure-activity relationship of nonacidic quinazolinone inhibitors of human microsomal prostaglandin synthase 1 (mPGES 1)” (J Med Chem, 2012).

Each structure is given as a SMILES string.

The assay concerns the target T1, Prostaglandin E synthase (Homo sapiens) (UniProt O14684).
T1 sequence (whole entry): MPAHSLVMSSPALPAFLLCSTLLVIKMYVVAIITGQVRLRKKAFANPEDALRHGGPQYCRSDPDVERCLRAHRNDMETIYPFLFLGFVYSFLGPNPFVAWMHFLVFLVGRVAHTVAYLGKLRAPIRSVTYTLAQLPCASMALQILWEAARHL
Put plainly: Inhibition of mPGES-1 in IL1beta and TNFalpha-stimulated human HeLa cells assessed as PGE2 level at 1 uM after 24 hrs by LC-MS/MS analysis relative to isolated enzyme.

With `CCCc1nc2ccc(NC(=O)c3ccccc3Cl)cc2c(=O)n1Cc1ccc(-c2cccc(OC)c2)cc1`, the potency shift was 28%.
